Where two headings read alike, the source gives them in different places. Blank lines part the entries; values can stand above or below the molecule they belong to.
Experiments:
[1] = tested on: HepG2 cells; assay: Drug/cytokine-induced cytotoxicity (% LDH release) concentration-response in HepG2 cells; assay type: cell-based, human; set-up: key to Deltadiff: LDH release percentage points (drug/TNF Delta minus drug/VEH Delta); settings: for R10 / R10 IFN / R10 TNF / R10 TNF/IFN: 10 percent increase in LDH response above min, 0 when D10 = 0; for R10 IFN: with IFN; for R10 TNF: with TNF; for R10 TNF/IFN / EC10 TNF/IFN: with TNF and IFN; for Deltadiff: Delta of drug/TNF curve minus Delta of drug/VEH curve (LDH percentage); for cytotoxic interaction of drug with TNF / effect of IFN coexposure on the drug/TNF cytotoxic interaction / cytotoxicity of drug on its own (LDH release): HepG2, 24 h; for cytotoxic interaction of drug with TNF: TNF 10 ng/ml; for effect of IFN coexposure on the drug/TNF cytotoxic interaction: TNF and IFN 10 ng/ml each; for cytotoxicity of drug on its own (LDH release): absence of cytokines; for TNF change: D10TNF − D10VEH; for EC10 TNF: with TNF 10 ng/ml
Outline: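 Cells at passage 6-16 were treated for 24 hours with drug or vehicle (water or DMSO <0.5%), alone or with TNF (10 ng/ml) and/or IFN (10 ng/ml), after overnight attachment. Cytotoxicity was scored as LDH released into medium; concentrations were expressed as [drug]/Cmax, with four-parameter logistic fits giving EC50, EC10 and R10 (+10 LDH points over baseline).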

[2] = maximal plasma concentration after pharmacologic dosing in human patients; cited from earlier work
[3] = tested on: HepG2 cells; assay: Point of departure (POD) from censored concentration-response relationships in HepG2 cells; assay type: cell-based, human; settings: censored CRRs, 4-parameter log-logistic model
From the text: Partial, or censored, CRRs were then created using concentrations at or below the EC50. Nine CRC models were fit to the partial CRRs for all 24 drugs and compared to identify the best-fitting CRC model overall. Models were compared using Akaike Information Criteria (AIC; Akaike 1973, Burnham & Anderson 2002). The 4-parameter log-logistic model was selected to model censored CRRs for each of the 24 drugs since it provided the best fit (lowest AIC) for the majority of drugs. […] PODs provided a robust measure to characterize each of the CRCs using the low-concentration regions of the CRRs. In addition to POD.DRUG and POD.DRUG+TNF, POD.DIFF (i.e., POD.DRUG−POD.DRUG+TNF) and POD.RATIO (i.e., POD.DRUG/POD.DRUG+TNF) were used as covariates in the logistic regression model developed to classify the drugs according to their IDILI status. […] The horizontal blue line illustrates the mean control value estimated by pooling LDH % responses at the zero concentrations for both CRRs above. The horizontal dashed red line illustrates an upper limit of the pooled control data as the control mean plus 2 control standard deviations. PODs were then calculated for each curve as the effective concentration corresponding to the upper limit of the pooled control data, shown as vertical dashed red lines.

[4] = Logistic regression classification model: probability that a drug is associated with IDILI; set-up: species or system human; settings: probability that drug is associated with IDILI; covariates Deltadiff, EC50 VEH, EC50 TNF, Delta VEH, Cmax; optimal cutoff 0.46
From the text: Classification modeling using defined covariates. In the second phase of analysis, classification models were developed using logistic regression with covariates as independent variables in the analysis and known IDILI classification as the dependent variable. A model selection process was used to determine if a covariate or set of covariates is associated with IDILI liability. Covariates were first evaluated individually to determine how well a particular covariate classified drugs according to IDILI liability, and then covariates were evaluated in combination. Combinations of covariates were selected to maximize the ability of the model to distinguish between drugs associated or not with IDILI. Specifically, covariates that describe changes in efficacy (Delta, Deltadiff, etc.) were paired with covariates that describe changes in potency (EC50, EC10, R10, etc.) to find covariate combinations that led to models that most accurately discriminated between drugs that are and are not associated with IDILI. […] The logistic regression models follow the equation: […]
where ŷi is the calculated (predicted) probability that drug i with a vector of covariates xi is associated with IDILI. The β coefficients (β0, the regression intercept; and βi, the regression slopes for model covariates, xi) were derived from the logistic regression models using 1) combinations of the covariates (xi) generated by concentration-response modeling for each of the 24 drugs evaluated in this study, and 2) the true IDILI classification for the dependent variable yi (i.e., 1 for IDILI+drugs and 0 for IDILI-drugs). […] This occurs when a covariate almost perfectly separates observations into the appropriate categories. […] When separation or quasi-complete separation occurs, use of the standard method (i.e., maximum likelihood estimation) provides biased, unreliable estimates of βi.
Receiver operating characteristic (ROC) analysis. In the third phase of the statistical approach, the classification models, generated as logistic regression models using single covariates or combinations of covariates, were evaluated by ROC analysis to determine which model and corresponding sets of covariates led to the most accurate classification of drugs according to their potential to cause IDILI. An ROC curve was created for each model by graphing the true positive rate (sensitivity; i.e., proportion of drugs correctly classified as associated with IDILI) against the false positive rate (1-specificity; i.e., proportion of drugs incorrectly classified as associated with IDILI) at various probability cutoff thresholds (k). […] An area under the curve (AUC) and confidence interval was computed for each ROC curve (where each logistic regression model has one ROC curve). […] Corresponding to each ROC curve is an optimal threshold value (k*), the threshold yielding the highest point of accuracy on the curve (i.e., the point nearest the point […] on the curve). Thus, each ROC curve has a corresponding AUC and an optimal cutoff (k*) that corresponds to the highest point of accuracy on that ROC curve.

[5] = cited from earlier work; for True classification: IDILI in human patients; for IDILI liability: criteria of Xu et al. (2008)
[6] = Homo sapiens, HepG2, categorical, Delta threshold 10 LDH percentage points, drug alone (VEH), read-out: D10
[7] = Homo sapiens, HepG2, maximal LDH response, drug alone (VEH), 24 h, read-out: max
[8] = value corresponding to 10% of Delta, NA = no significant increase

SMILES: N[C@@H]1[C@H]2CN(c3nc4c(cc3F)c(=O)c(C(=O)O)cn4-c3ccc(F)cc3F)C[C@@H]12 [Trovafloxacin]
- R10 ([1]; drug alone (VEH)): 0 [drug]/Cmax
- R10 IFN [1]: 0 [drug]/Cmax
- R10 TNF [1]: 4.8 [drug]/Cmax
- R10 TNF/IFN [1]: 1.2 [drug]/Cmax
- Deltadiff [1]: 27.4
- cytotoxic interaction of drug with TNF [1]: TNF significantly enhanced the cytotoxicity
- effect of IFN coexposure on the drug/TNF cytotoxic interaction [1]: coexposure to IFN enhanced the cytotoxic interaction
- cytotoxicity of drug on its own (LDH release) [1]: statistically significant increase in LDH release
- Emax [1, 6]: < 10%
- Emax [1, 7]: 18.7%
- TNF change ([1]; categorical): 1
- EC10 TNF [1, 8]: 2.3 [drug]/Cmax
- EC10 TNF/IFN [1, 8]: 0.5 [drug]/Cmax
- Cmax [2]: 5000 nM
- POD.DRUG versus POD.DRUG+TNF [3]: POD.DRUG occurs at a relatively higher concentration than POD.DRUG+TNF

- Estimated probability [4]: 0.961
SMILES: CN(C)CCCN1c2ccccc2Sc2ccc(Cl)cc21 [Chlorpromazine]
- True classification [5]: IDILI+
- IDILI liability [5]: IDILI+
- R10 ([1]; drug alone (VEH)): 36.0 [drug]/Cmax
- R10 IFN [1]: 34.8 [drug]/Cmax
- R10 TNF [1]: 31.5 [drug]/Cmax
- R10 TNF/IFN [1]: 25.3 [drug]/Cmax
- Deltadiff [1]: −15.3
- cytotoxic interaction of drug with TNF [1]: TNF significantly enhanced the cytotoxicity
- effect of IFN coexposure on the drug/TNF cytotoxic interaction [1]: coexposure to IFN enhanced the cytotoxic interaction
- cytotoxicity of drug on its own (LDH release) [1]: statistically significant increase in LDH release
- D10 (LDH rise of at least 10 points, yes/no) ([1]; Homo sapiens, HepG2, categorical, Delta threshold 10 LDH percentage points, drug alone (VEH)): > 10%
- Emax [1, 7]: 111%
- EC10 ([1]; value corresponding to 10% of Delta (max-min), drug alone (VEH), NA = no significant increase): 35.8 [drug]/Cmax
- EC10 IFN ([1]; value corresponding to 10% of Delta, with IFN 10 ng/ml, NA = no significant increase): 34.1 [drug]/Cmax
- EC10 TNF [1, 8]: 30.5 [drug]/Cmax
- EC10 TNF/IFN [1, 8]: 24.1 [drug]/Cmax
- Cmax [2]: 840 nM

- Estimated probability [4]: 0.1275
SMILES: CC(=O)[C@]1(O)Cc2c(O)c3c(c(O)c2[C@@H](O[C@H]2C[C@H](N)[C@H](O)[C@H](C)O2)C1)C(=O)c1ccccc1C3=O [Idarubicin]
- True classification [5]: IDILI−
- IDILI liability [5]: IDILI−
- R10 ([1]; drug alone (VEH)): 0 [drug]/Cmax
- R10 IFN [1]: 0 [drug]/Cmax
- R10 TNF [1]: 0 [drug]/Cmax
- R10 TNF/IFN [1]: 0 [drug]/Cmax
- Deltadiff [1]: 0
- Emax [1, 6]: < 10%
- Emax [1, 7]: 13.9%
- TNF change ([1]; categorical): 0
- Cmax [2]: 20 nM
